Assay: in vivo
Settings: for Detection in rat plasma after dosing: no complete pharmacokinetic curve; for Tmax: T max
Procedure: 0.1% formic acid in water (A) and acetonitrile (B) were used as mobile phases with the following gradient elution method: 0-2 min, 15%-25% B; 2-4 min, 25%-50% B; 4-6 min, 50%-90% B; and 6-7 min, 90%-95% B. The separation was performed on a Waters ACQUITY UPLC® CSHTM Phenyl-Hexyl (2.1 × 100 mm, 1.7 μm) column, and the temperature was maintained at 20°C. The flow rate and injection volume were 0.3 mL/min and 5 μL, respectively.
100 μL plasma sample was incorporated with 20 μL methanol and 20 μL of IS (20 ng/mL), and vortexed for 30 seconds. 1 mL ethyl acetate was then added to the sample and vortex-mixed for 3 min. […] The obtained residue was reconstituted in 100 μL methanol and centrifugation at 12000 × g for 10 min. 5 μL of the supernatant was injected for UPLC-MS/MS measurement.
Six male Sprague-Dawley rats (body weight, 220 ± 10 g) were used for this experiment. […] 0.5% CMC-Na aqueous solution was used to dissolve the Veratrum nigrum L. extract to a concentration of 0.2 g/mL suspension. […] After centrifugation at 4000 × g for 10 min at 4°C, the collected plasma was transferred into clean tubes and frozen at -80°C until next analysis. Pharmacokinetic parameters were calculated using “Drug and Statistics 3.0” (DAS 3.0) (Medical College of Wannan, China). The animal protocol was approved by the Animal Ethics Committee of Tianjin University of Traditional Chinese Medicine (TCM-LAEC20190060).
Some important pharmacokinetic parameters were calculated in this study including Cmax, the maximum plasma concentration and time to reach Cmax of each compound (Tmax). The T1/2 was the elimination half-life and it reflects the elimination rate of the drug in the body. The area under the plasma concentration-time curve AUC(0 − t) was calculated using the trapezoidal rule and extrapolated to infinity for AUC(0 − ∞). The mean residence time (MRT) of these ingredients was also investigated.

[1] = oral Veratrum nigrum L. extract 2 g/kg
[2] = male, Sprague-Dawley, rat, in vivo, po, 2 g/kg
[3] = male, Sprague-Dawley, rat, in vivo, po, 2 g/kg, male Sprague-Dawley rats, oral Veratrum nigrum L. extract 2 g/kg, plasma, n = 6, mean ± SD

SMILES	Detection in rat plasma after dosing [1]	AUC(0-inf) [2] [ng·h/mL]	AUC(0-t) [2] [ng·h/mL]	Cmax [2] [ng/mL]	MRT [2] [h]	MRT inf [2] [h]	half-life [2] [h]	Tmax [3] [h]	T max (male Sprague-Dawley rats, oral Veratrum nigrum L. extract 2 g/kg, plasma, n = 6, mean ± SD) [h]	T max [2] [h]	Tmax [2] [h]
O=c1c(O)c(-c2ccc(O)c(O)c2)oc2cc(O)cc(O)c12 [Quercetin, quercetin]	only detected at the first few plasma sampling points	–	–	–	–	–	–	–	–	–	–
O=c1cc(-c2ccc(O)cc2)oc2cc(O)cc(O)c12 [Apigenin, apigenin]	only detected at the first few plasma sampling points	–	–	–	–	–	–	–	–	–	–
Cc1c([C@H](C)[C@@H]2NC[C@@H](C)C[C@H]2O)ccc2c1C[C@H]1[C@H]2CC=C2C[C@@H](O[C@@H]3O[C@H](CO)[C@@H](O)[C@H](O)[C@H]3O)CC[C@@]21C [Veratrosine, veratrosine]	–	421 ± 199	410 ± 183	237 ± 155	10.5 ± 6.9	11.3 ± 7.68	11.5 ± 7.04	0.08	–	–	–
CC1=C2C[C@H]3[C@@H](CC=C4C[C@@H](O)CC[C@@]43C)[C@@H]2CC[C@]12O[C@@H]1C[C@H](C)CN[C@H]1[C@H]2C [Cyclopamine, cyclopamine]	only detected at the first few plasma sampling points	–	–	–	–	–	–	–	–	–	–
CC1=C2C(=O)[C@H]3[C@@H](CC=C4C[C@@H](O)CC[C@@]43C)[C@@H]2CC[C@]12O[C@@H]1C[C@H](C)CN[C@H]1[C@H]2C [Jervine, jervine]	–	22700 ± 9430	22600 ± 9390	515 ± 242	38.8 ± 5.58	39.1 ± 5.53	13.6 ± 1.36	> 32	32.00 ± 6.20	–	–
OC[C@H]1O[C@@H](Oc2cc(O)cc(/C=C/c3ccc(O)cc3)c2)[C@H](O)[C@@H](O)[C@@H]1O [Polydatin, polydatin]	–	71.2 ± 13.9	60.4 ± 18.1	27.1 ± 24	13.2 ± 2.98	16.5 ± 13.7	14.4 ± 10.6	0.26 ± 0.29	–	–	–
Oc1ccc(/C=C/c2cc(O)cc(O)c2)cc1 [Resveratrol, resveratrol]	–	101 ± 51.5	89.7 ± 49.3	45 ± 39.5	13.2 ± 7.77	19 ± 15.5	2.24 ± 1.11	0.18 ± 0.17	–	–	–
Cc1c([C@H](C)[C@@H]2NC[C@@H](C)C[C@H]2O)ccc2c1C[C@H]1[C@H]2CC=C2C[C@@H](O)CC[C@@]21C [Veratramine, veratramine]	–	8000 ± 2330	7980 ± 2330	193 ± 76.5	38.8 ± 5.83	39 ± 5.91	14.2 ± 6.51	–	–	34.08 ± 23.14	> 32
